In PubChem BioAssay AID179 (DTP/NCI, 2004):
Calls of active or inactive are those of the source.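 The calls were made as follows: active = compounds giving half or more protection of infected cells from virus-caused growth loss, again on retest; inactive = the rest.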

Test system: CEM cells HIV-1 protection, formazan growth assay
Assay: NCI AIDS Antiviral Assay
Conditions: for IC50: measured here: growth of uninfected CEM cells
How it was run: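 Protection of CEM cells against HIV-1 measured as cell growth via soluble formazan read-out, with five concentrations tested on both infected and uninfected cells; failure to protect may reflect toxicity.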

SMILES | EC50 | IC50 | outcome
Nc1c(Cl)c([N+](=O)[O-])cc2c1OCCCCO2 | > 200 µM | 123 µM | –
CCOC(=O)C1SC(=Nc2ccc(Cl)c(Cl)c2)N=C1C (stereo not given) | > 11.5 µM | > 11.5 µM | –
O=c1cc([O-])[n+](C2OC(CO)C(O)C2O)c2sccn12 (stereo not given) | > 63.1 µM | > 63.1 µM | –
CC1=C(C(=O)CC(=O)C(=O)Nc2cccc(Cl)c2C)Sc2ccccc2N1 | > 64.6 µM | > 64.6 µM | –
COC(=O)[C@]12CSC[C@H]1C[C@H](c1cccc3ccccc13)N2 | > 200 µM | > 200 µM | –
CCOC(=O)CC(C)OC1CCCCO1 (stereo not given) | – | – | inactive
CC(=O)Nc1cc(N=Nc2ccc(N=Nc3ccc(NC(=O)c4ccc(N)cc4)cc3C)cc2C)c(S(=O)(=O)O)cc1N=Nc1cccc(C(=O)O)c1 | 20.9 µM | 170 µM | –
S=c1[nH]nc(Nc2ccc(Cl)cc2)s1 | > 200 µM | 79.4 µM | –
CCOC(=O)/C(=C\c1ccc(C)cc1)[Se]c1ccccc1 | > 5.75 µM | > 5.75 µM | –
O=c1c2ccc(Br)cc2nc(-c2ccccc2)n1NC1OC(CO)C(O)C(O)C1O (stereo not given) | – | – | inactive
Cc1cc(CO)c(O)c(CN(CCO)CCO)c1 | > 200 µM | 20.4 µM | –
Nc1c(-c2ccccc2)oc2ccccc2c1=O | > 200 µM | > 200 µM | –
O=C(O)Cc1cc(=O)[nH]c2c1C(=O)CCC2 | – | – | inactive
O=C(O)/C=C/c1ccc(O)cc1 | > 200 µM | > 200 µM | –
COc1cc2c(cc1OC)C1CC(OC(=O)c3ccccc3)(c3nccc4cc(OC)c(OC)cc34)CCN1CC2 (stereo not given) | – | – | inactive
C=C1CN(S(=O)(=O)c2ccc(C)cc2)CCCN(CCC(C)C)CCCN(S(=O)(=O)c2ccc(C)cc2)C1 | > 200 µM | 1.02 µM | –
NC(=S)N/N=C1\NC(=O)/C(=C/c2ccc3c(c2)OCO3)S1 | > 200 µM | 158 µM | –
Clc1nc(Cl)nc(NC23CC4CC(CC(C4)C2)C3)n1 | > 200 µM | 107 µM | –
Cc1c(OCCCOc2ccc3c(=O)cc(-c4ccccc4)oc3c2C)ccc2c(=O)cc(-c3ccccc3)oc12 | > 25.1 µM | > 25.1 µM | –
O=P(OC1=CCCCC1)(c1ccccc1)c1ccccc1 | > 200 µM | 81.3 µM | –
O=C1C2=Nc3ccccc3C(O)(C(=O)O)N2c2ccccc21 (stereo not given) | > 200 µM | 16.6 µM | –

SMILES | EC50 | IC50 | outcome
Cc1cc2cc(O)c3c(=O)c4c(O)cccc4c(=O)c3c2c(=O)c1=O | > 21.4 µM | 12 µM | –
COc1cc(C(=O)Nc2cccc3ccccc23)c(Br)c(OC)c1OC | > 45.7 µM | > 45.7 µM | –
CN(C)CC/C=C1\c2ccccc2CN(C)c2ccccc21 | > 200 µM | 33.1 µM | –
CCCCC1Sc2cc(OC)cc3c2N(CCN3)C1=O (stereo not given) | > 200 µM | 28.2 µM | –
O=C1C2=C(c3ccccc31)C(c1ccccc1)N1C(=O)CSC1=N2 (stereo not given) | > 77.6 µM | 34.7 µM | –
[N-]=[N+]=Nc1ncnc2c1sc(=S)n2-c1ccccc1 | > 91.2 µM | > 91.2 µM | –
C[C@@H](O)[C@H]1/C=C/C=C\C(=O)O[C@@H]2C[C@H]3O[C@@H]4[C@@H]5OC5(C)CCC4(COC(=O)[C@H]4O[C@]4(C)[C@@H](O)CO1)[C@]2(C)[C@]31CO1 (stereo not given in full) | > 0.2 µM | 0.0631 µM | –
CCOC(=O)/C(=C/c1ccc(N(C)C)cc1)N(CC)CC | > 46.8 µM | > 46.8 µM | –
S=C(c1c[nH]c2ccccc12)N1CCCCC1 | > 200 µM | 44.7 µM | –
CO/N=C(\C(=O)OC(=NC1CCCCC1)NC1CCCCC1)c1csc(NC(c2ccccc2)(c2ccccc2)c2ccccc2)n1 | > 200 µM | 52.5 µM | –
COc1ccc2c(c1OC)C(=O)c1cc(C(C)O)oc1C2=O (stereo not given) | – | – | inactive
O=C(O)c1cc(=O)c2c([nH]c3ccccc32)s1 | – | – | inactive
Nc1cc(=O)[nH][nH]1 | > 200 µM | > 200 µM | –
CC(C)(C)c1ccc(-c2nnc(-c3cc(C#N)cc(-c4nnc(-c5ccc(C(C)(C)C)cc5)o4)c3)o2)cc1 | > 100 µM | > 100 µM | –
c1ccc([P+](c2ccccc2)(c2ccccc2)c2ccc([P+](c3ccccc3)(c3ccccc3)c3ccccc3)c3ccccc23)cc1 | > 200 µM | 110 µM | –
Cc1ccc(O)c(C(c2cccc(C(c3cc(C)ccc3O)c3cc(C)ccc3O)c2)c2cc(C)ccc2O)c1 | > 20 µM | 3.31 µM | –
COC(=O)/C(C#N)=C1\N=NNN1CCCN1CCOCC1 | – | – | inactive
Cc1c2c(Cl)c3c(c(Cl)c2c(C)c2c(Cl)c4c(c(Cl)c12)C(c1ccccc1)(c1ccccc1)C4(c1ccccc1)c1ccccc1)C(c1ccccc1)(c1ccccc1)C3(c1ccccc1)c1ccccc1 | > 100 µM | > 100 µM | –
O=C(Nc1ccccc1C(F)(F)F)OCCN1CCNC1=S | > 200 µM | > 200 µM | –
CCCCC1(C(NC(=O)c2ccccc2Cl)c2ccncc2)C(=O)N(c2ccccc2)N(c2ccccc2)C1=O (stereo not given) | – | – | inactive
CC(=O)NC(CCCCNC(=O)OCc1ccccc1)C(=O)O (stereo not given) | > 776 µM | > 776 µM | –

SMILES | EC50 | IC50 | outcome
CC1(C)CN=C(c2ccc3ccccc3c2O)N1 | > 200 µM | > 200 µM | –
CCOC(=O)c1ccc(CSc2ccc(Cl)cc2)cc1 | > 4.68 µM | > 4.68 µM | –
C=C1CC(c2ccc(OCCCN3C(=O)c4ccccc4C3=O)c(OC)c2)OC1=O (stereo not given) | > 20 µM | 0.912 µM | –
CC[As](CC)SCC1OC(OC(C)=O)C(OC(C)=O)C(OC(C)=O)C1OC(C)=O (stereo not given) | > 191 µM | 4.57 µM | –
CC(=O)NS(=O)(=O)c1ccc(NC(=O)c2ccccc2SC(C)=O)cc1 | 17 µM | 112 µM | –
NC(=O)c1cccc([C@@H]2O[C@H](CO)[C@@H](O)[C@H]2O)c1 | > 977 µM | 5.37 µM | –
COC(=O)C(=O)C1(CCC(C)=O)c2ccccc2-c2ccccc21 | – | – | inactive
O=C1c2ccc(S(=O)(=O)O)cc2C(=O)c2cc(S(=O)(=O)O)ccc21 | – | – | inactive
COC(=O)C(C(=O)C(=O)NC1=C(Cl)C(=O)c2ccccc2C1=O)c1csc(-n2nc(-c3ccccc3)cc2-c2ccccc2)n1 (stereo not given) | > 11.2 µM | > 11.2 µM | –
CC1(C)CC(=O)c2c(ccc(C(=O)C[C@@H](N)CO)c2N)O1 | – | – | inactive
O=C1NC(=O)c2c1n(Cc1ccccc1)c(=O)n2Cc1ccccc1 | > 77.6 µM | > 77.6 µM | –
CN(CC(=O)O)S(=O)(=O)c1ccc2ccccc2c1 | – | – | inactive
CCC12OCC(C)(C)N1OC(=O)N2c1ccccc1 (stereo not given) | > 200 µM | > 200 µM | –
CC(C)CCCC(C)[C@H]1CC[C@H]2[C@@H]3CC[C@H]4C[C@@H](CCC=C(c5cc(Cl)c(OCc6ccc([N+](=O)[O-])cc6)c(C(=O)O)c5)c5cc(Cl)c(OCc6ccc([N+](=O)[O-])cc6)c(C(=O)O)c5)CC[C@]4(C)[C@H]3CC[C@]12C (stereo not given in full) | > 100 µM | > 100 µM | –
O=c1c2cccnc2ncn1CCCN1CCOCC1 | – | – | inactive
O=c1[nH]c2ccc(O)cc2o1 | > 200 µM | > 200 µM | –
C=CCCC(CCC=C)(C(=O)O)C(=O)O | > 1170 µM | > 1170 µM | –
Cn1cnc2c(C#N)c(C#N)nn2c1=O | > 200 µM | > 200 µM | –
O=C1CSC(/C(=C\c2ccc(Cl)cc2)c2nc3ccccc3[nH]2)=N1 | > 10 µM | > 10 µM | –
COc1ccc(C2Oc3c(c(O)cc4c3[C@H](c3ccc(O)cc3O)[C@H](O)C(c3ccc(O)c(O)c3)O4)C[C@@H]2O)cc1O (stereo not given in full) | – | – | inactive
